Measured values as given in patent publication US20100292306A1, “Compositions And Methods For The Treatment Of Muscular Dystrophy” (priority 2005, published 2010).
Entries after “also recorded” stand apart in the source; their conditions may differ.

What was measured:
[1] = test system: nondystrophic and mdx TS muscle fibers; experiment: Effect of Gd^3+ on resting membrane potential of isolated TS muscle preparations; type: cell-based, mice
Method: The effect of the Ca^2+ channel blocker, Gd^3+, on the resting membrane potential was examined in both nondystrophic and mdx TS muscle preparations. Gd^3+ blocks both nonselective cation channels and more Ca^2+-selective leak channels (Franco et al., 1991 and Yang and Sachs, 1989) and, at concentrations of 20-100 μM, eliminates fluorometric determinations of resting Ca^2+ influx in a variety of cells (Broad et al., 1999, Carlson and Geisbuhler, 2003, Cox et al., 2002 and Samadi et al., 2005). […]
The potential effect of Gd^3+ on resting potential was determined in several nondystrophic (5-17 months) and mdx (5-11.5 months) TS preparations by first recording from several cells in normal HEPES Ringer solution, and then adding 100 μM GdCl3 to the solution while recording continuously from a single fiber. After removing the electrode from the fiber, the resting potential of several additional fibers were determined in the presence of the lanthanide. The average resting potential in nondystrophic fibers bathed in normal HEPES Ringer was −50.1±1.4 (SE) mV, a value lower than that recorded in this laboratory from nondystrophic diaphragm (−63±1.3 mV, N=98 fibers, 5 weeks to 2 years of age; Carlson and Roshek, 2001).

nuclear NF-κB activation = details: long term treatment; Durham et al. (2006); cited from earlier work
mdx TS muscle fibers = experiment: Intracellular recording of resting membrane potential in TS muscle fibers after chronic treatment; type: in vivo, mdx mice; details: sulfasalazine 100 mg/kg ip daily 68 days, vs vehicle littermate
nuclear NFκB = experiment: EMSA of nuclear NFκB binding in costal diaphragm nuclear extracts after single injection; type: in vivo, mdx mice; details: sulfasalazine 100 mg/kg ip single injection, 3 hours, mdx 3 to 3.5 months
Method: MDX mice aged 3 to 3.5 months were injected with either sulfasalazine (SS; 100 mg/kg, ip) or vehicle (HEPES Ringer; in mM: 147.5 NaCl, 5 KCl, 2 CaCl2, 11 glucose, 5 HEPES, pH 7.35) and euthanized at 3 hours post-injection. The costal diaphragms were removed and flash frozen before beginning the extract procedure. Nuclear and cytosolic extracts were obtained using a procedure slightly modified from that described in Carlson et al. (2005) and Kumar and Boriek (2003). […] Protein determinations were determined by the method of Lowry using bovine serum albumin standards (20 μg nuclear protein was added to each lane).
; in mM: 147.5 NaCl, 5 KCl, 2 CaCl2, 11 glucose, 5 HEPES, pH 7.35; 0.1% DMSO) and euthanized at 3 hours post-injection. […] Protein determinations were determined by the method of Lowry using bovine serum albumin standards (20 μg nuclear protein was added to each lane).

TNFα = experiment: ELISA of TNFα in cytosolic muscle extracts after single sulfasalazine injection; type: in vivo, mdx mice; details: mdx costal diaphragm; SS 100 mg/kg ip single injection, 3 hours
Text: (§1) Each diaphragm was divided into costal and crural regions which were processed and analyzed separately. After determining protein concentrations for each of the cytosolic and nuclear extracts (Lowry assay), samples of each extract were used to obtain standard ELISA determinations of mouse TNFα, IL-6, and IL-1β using standard procedures (Assay Designs, Inc.). These particular NFκB products were chosen because of their role in the inflammatory reaction and previously published results indicating the presence of these cytokines in nondystrophic skeletal muscle homogenates (Molina et al., Neuroimmunomodulation, 4, 28-36, 1997; Jonsdottir et al., J. of Physiol. (Lond.), 528.1, 157-163, 2000; Lang et al., Shock, 19(6), 538-546, 2003).
(§2) MDX mice aged 3 to 3.5 months were injected with either SS (100 mg/kg) or vehicle (HEPES Ringer; in mM: 147.5 NaCl, 5 KCl, 2 CaCl2, 11 glucose, 5 HEPES, pH 7.35) and euthanized at 3 hours post-injection. The costal and crural diaphragms and the gastrocnemius muscle were then immediately removed and flash frozen before beginning the procedure to obtain nuclear and cytosolic extracts as described in Example 10. ELISA determinations of TNFα, Il1-β, and IL6 were determined as described in Example 9.

IL1-β = experiment: ELISA of IL1-β in cytosolic muscle extracts after single sulfasalazine injection; type: in vivo, mdx mice; details: SS 100 mg/kg ip single injection, 3 hours
Text: as §1, §2

IL6 = experiment: ELISA of IL6 in cytosolic muscle extracts after single sulfasalazine injection; type: in vivo, mdx mice; details: costal and crural diaphragms; SS 100 mg/kg ip single injection, 3 hours
Text: as §1, §2

[2] = Observation of viability, side effects and body weight during treatment

[Cl][Gd]([Cl])[Cl] [Gd^3+, GdCl3]
change in resting potential, total sample of fibers ([1]; 100 μM GdCl3, failed to reach statistical significance in nondystrophic or mdx): slight hyperpolarization
effect on resting potential when added during recording ([1]; 100 μM GdCl3 added while recording from nondystrophic or mdx fibers): No effect

COc1cc(/C=C/C(=O)CC(=O)/C=C/c2ccc(O)c(OC)c2)ccc1O [curcumin, diferuloylmethane]
nuclear NF-κB activation in mdx costal diaphragm (nuclear NF-κB activation): did not reduce

O=C(O)c1cc(/N=N/c2ccc(S(=O)(=O)Nc3ccccn3)cc2)ccc1O [sulfasalazine, Sulfasalazine]
resting potential of TS muscle fibers (mdx TS muscle fibers): significantly improves
resting potential of TS muscle fibers (mdx TS muscle fibers; listed as SS): significantly improved
nuclear NFκB binding to consensus sequence / nuclear NF-kappaB activation (nuclear NFκB): may reduce
nuclear NFκB binding to consensus sequence / nuclear NF-kappaB activation (nuclear NFκB; listed as SS): reduction
expression of TNFα in cytosolic extracts (TNFα): reduced
expression of IL1-β in cytosolic extracts (IL1-β): did not reduce; also recorded: not influenced
expression of IL6 in cytosolic extracts (IL6): did reduce; also recorded: reduced
body weight ([2]; SS 100 mg/kg ip daily 68 days): maintained their body weight
side-effects of chronic treatment schedule ([2]; SS 100 mg/kg ip daily 68 days): no obvious side-effects
side effects after injection ([2]; SS 100 mg/kg ip, aside from 5 to 10 sec restlessness): no obvious side effects
